Numbers after ± are expanded uncertainties.
How the values were obtained:
[1] = molar heat capacity at constant pressure; details: 101 kPa, Liquid, Small sample (50 mg) DSC
[2] = 101.33 kPa, Liquid; for speed of sound: Pulse-echo method; for mass density: Pycnometric method

CCCCCCCCCCO [decan-1-ol]
Details	mass density [kg/m3]	molar heat capacity at constant pressure [J/K/mol]	speed of sound [m/s]
[1], 290.91 K	–	364.49 ± 5.7	–
[1], 291.15 K	–	364.8 ± 5.7	–
[1], 292.15 K	–	366.05 ± 5.7	–
[1], 293.15 K	–	367.19 ± 5.7	–
[1], 294.15 K	–	368.25 ± 5.7	–
[1], 295.15 K	–	369.35 ± 5.7	–
[1], 296.15 K	–	370.35 ± 5.7	–
[1], 297.15 K	–	371.6 ± 5.8	–
[1], 298.15 K	–	372.77 ± 5.8	–
[1], 299.15 K	–	373.71 ± 5.8	–
[1], 300.15 K	–	374.91 ± 5.8	–
[1], 301.15 K	–	375.89 ± 5.8	–
[1], 302.15 K	–	377.05 ± 5.8	–
[1], 303.15 K	–	378.2 ± 5.9	–
[1], 304.15 K	–	379.47 ± 5.9	–
[1], 305.15 K	–	380.58 ± 5.9	–
[1], 306.15 K	–	381.75 ± 5.9	–
[1], 307.15 K	–	382.43 ± 5.9	–
[1], 308.15 K	–	384.6 ± 6	–
[1], 309.15 K	–	385.42 ± 6	–
[1], 310.15 K	–	386.61 ± 6	–
[1], 311.15 K	–	387.89 ± 6	–
[1], 312.15 K	–	389.03 ± 6	–
[1], 313.15 K	–	390.28 ± 6	–
[1], 314.15 K	–	391.58 ± 6.1	–
[1], 315.15 K	–	392.8 ± 6.1	–
[1], 316.15 K	–	394.11 ± 6.1	–
[1], 317.15 K	–	395.3 ± 6.1	–
[1], 318.15 K	–	396.66 ± 6.2	–
[1], 318.39 K	–	396.93 ± 6.2	–
[2], 293.1 K	–	–	1397.2 ± 1.6
[2], 293.15 K	829.77 ± 0.67	–	–
[2], 298.07 K	–	–	1380 ± 1.6
[2], 298.15 K	826.38 ± 0.67	–	–
[2], 303.04 K	–	–	1362.8 ± 1.6
[2], 303.15 K	822.98 ± 0.67	–	–
[2], 308.04 K	–	–	1345.8 ± 1.6
[2], 308.15 K	819.62 ± 0.67	–	–
[2], 313.01 K	–	–	1329 ± 1.6
[2], 313.15 K	816.15 ± 0.68	–	–
[2], 318.15 K	812.67 ± 0.68	–	–
[2], 318.18 K	–	–	1311.7 ± 1.6

CCCCCCC [heptane]
[2]
Details	mass density [kg/m3]	speed of sound [m/s]
293.13 K	–	1151.9 ± 1.2
293.15 K	683.81 ± 0.62	–
298.12 K	–	1130.3 ± 1.2
298.15 K	679.6 ± 0.62	–
303.1 K	–	1108.8 ± 1.2
303.15 K	675.38 ± 0.63	–
308.07 K	–	1087.5 ± 1.2
308.15 K	671.05 ± 0.64	–
313.03 K	–	1066.3 ± 1.2
313.15 K	666.78 ± 0.64	–
318.15 K	662.42 ± 0.65	–
318.33 K	–	1043.9 ± 1.2

— the NIST ThermoML archive (doi:10.1016/j.jct.2005.10.009)
